Assay results as given in patent US10479789B2, “Pyrido[1,2-A]pyrimidone analog, crystal form thereof, intermediate thereof and preparation method therefor” (Chia Tai Tianqing Pharmaceutical Group Co., Ltd., priority 2015, dated 2019).

Experiments:
[1] = test system: human gastric cancer ST-02-0013; assay: In vivo pharmacodynamics, subcutaneous xenograft tumor model of human gastric cancer ST-02-0013; design: species or system BALB/c nude mice
Protocol: The studies were conducted to examine if the test drugs have in vivo efficacy in the human colon cancer CO-04-0032 animal model and the gastric cancer ST-02-0013 animal model. The descriptions about the animal feeding, feed ingredients, experimental observation, experimental indexes, experimental termination, as well as data analysis in the tests were as follows:
Animal Grouping: The animals were weighed and the tumor volume was measured prior to administration. The animals were randomly grouped according to tumor volume (randomized block design).
Experimental Indexes: The experimental indexes were used to examine whether tumor growth is inhibited, delayed or cured. Tumor diameter was measured twice a week with a vernier caliper. The tumor volume was calculated by the formula: V=0.5a×b^2, wherein a and b represent the long diameter and short diameter of a tumor, respectively. Tumor growth inhibition (TGI) of a compound was evaluated with T-C (day) and T/C (%). […]
Data Analysis: One-way ANOVA was used for comparison of three or more groups. […] All data was analyzed using SPSS 17.0. p<0.05 indicated a significant difference. […]

mTOR = molecular target: T1, mTOR (Homo sapiens, UniProt P42345); assay: mTOR kinase activity, 32P-ATP P81 filter-binding method; assay type: biochemical; details: 3 μM 4EBP1 and 10 μM ATP; read-out: IC50 of mTOR enzyme activity
T1 construct: N-terminal GST tag (amino acid 1360-2549, molecular weight=163.9 kDa); GST (N); host or cells: insect cells
Protocol: The activity of the test compounds of the present invention on mTOR kinase was tested by the test method below.
Reaction Buffer: 20 mM Hepes (pH 7.5), 10 mM MgCl2, 2 mM MnCl2, 1 mM EGTA, 0.02% Brij35, 0.02 mg/mL BSA, 0.1 mM Na3VO4, 2 mM DTT, 2% DMSO.
Enzyme for reaction: humanized recombinant mTOR fragment with a N-terminal GST tag (amino acid 1360-2549, molecular weight=163.9 kDa), expressed in insect cells.
Reaction Substrate: humanized recombinant full-length 4EBP1 with a N-terminal His tag (molecular weight=13.6 kDa), expressed in bacteria;
Reaction conditions: 3 μM 4EBP1 and 10 μM ATP.
1. The reaction substrate and other reaction factors were added to the freshly prepared reaction buffer.
2. The kinase was added to the substrate reaction and gently mixed.
3. The compound dissolved in 100% DMSO was transferred into the kinase reaction solution using Acoustic technology (Echo 550; nanoliter rang) and then incubated at room temperature for 20 min.
4. An appropriate concentration of ^32P-ATP was add to the reaction system.
5. It was incubated at room temperature for 2 hours.
6. Kinase activity was detected by the P81 filter-binding method.

PI3Kβ = PI3Kβ (Homo sapiens, UniProt P42338); assay: ADP-Glo Assay II, PI3Kβ; assay type: biochemical; details: read-out: IC50 for inhibition of PI3Kβ activity
Protocol: 1) The compound was diluted using Echo from Labcyte company, 50 nL of the compound was transferred into an assay plate, and centrifuged at a speed of 1000 rpm for 10 sec.
2) A kinase/lipid substrate mixed solution and a kinase reaction buffer/lipid substrate mixed solution were prepared; the kinase/lipid substrate mixed solution was added into columns 3-24 of the assay plate, 3 μL per well; the kinase reaction buffer/lipid substrate mixed solution was added into columns 1-2 of the assay plat, 3 μL per well; and the plate was centrifuged at a speed of 1000 rpm for 10 sec.
3) An ATP solution was prepared, and added into the assay plate, 2 μL per well; the plate was centrifuged at a speed of 1000 rpm for 10 sec, shaken and mixed in 2nd gear mode on a plate shaker for 1 min, further centrifuged at a speed of 1000 rpm for 10 sec, and incubated for 120 min at 23° C. […]
5) A kinase detection reagent was prepared, added into the assay plate, 10 μL per well; the plate was centrifuged at a speed of 1000 rpm for 10 sec, shaken and mixed in 2nd gear mode on a plate shaker for 1 min, further centrifuged at a speed of 1000 rpm for 10 sec, incubated for 30 min at 23° C.; and then read on the multi-marker detector Envision.
IC50 results were analyzed by XLfit5 (Formula 205) of IDBS company.

T1 sequence (P42345 1360-2549): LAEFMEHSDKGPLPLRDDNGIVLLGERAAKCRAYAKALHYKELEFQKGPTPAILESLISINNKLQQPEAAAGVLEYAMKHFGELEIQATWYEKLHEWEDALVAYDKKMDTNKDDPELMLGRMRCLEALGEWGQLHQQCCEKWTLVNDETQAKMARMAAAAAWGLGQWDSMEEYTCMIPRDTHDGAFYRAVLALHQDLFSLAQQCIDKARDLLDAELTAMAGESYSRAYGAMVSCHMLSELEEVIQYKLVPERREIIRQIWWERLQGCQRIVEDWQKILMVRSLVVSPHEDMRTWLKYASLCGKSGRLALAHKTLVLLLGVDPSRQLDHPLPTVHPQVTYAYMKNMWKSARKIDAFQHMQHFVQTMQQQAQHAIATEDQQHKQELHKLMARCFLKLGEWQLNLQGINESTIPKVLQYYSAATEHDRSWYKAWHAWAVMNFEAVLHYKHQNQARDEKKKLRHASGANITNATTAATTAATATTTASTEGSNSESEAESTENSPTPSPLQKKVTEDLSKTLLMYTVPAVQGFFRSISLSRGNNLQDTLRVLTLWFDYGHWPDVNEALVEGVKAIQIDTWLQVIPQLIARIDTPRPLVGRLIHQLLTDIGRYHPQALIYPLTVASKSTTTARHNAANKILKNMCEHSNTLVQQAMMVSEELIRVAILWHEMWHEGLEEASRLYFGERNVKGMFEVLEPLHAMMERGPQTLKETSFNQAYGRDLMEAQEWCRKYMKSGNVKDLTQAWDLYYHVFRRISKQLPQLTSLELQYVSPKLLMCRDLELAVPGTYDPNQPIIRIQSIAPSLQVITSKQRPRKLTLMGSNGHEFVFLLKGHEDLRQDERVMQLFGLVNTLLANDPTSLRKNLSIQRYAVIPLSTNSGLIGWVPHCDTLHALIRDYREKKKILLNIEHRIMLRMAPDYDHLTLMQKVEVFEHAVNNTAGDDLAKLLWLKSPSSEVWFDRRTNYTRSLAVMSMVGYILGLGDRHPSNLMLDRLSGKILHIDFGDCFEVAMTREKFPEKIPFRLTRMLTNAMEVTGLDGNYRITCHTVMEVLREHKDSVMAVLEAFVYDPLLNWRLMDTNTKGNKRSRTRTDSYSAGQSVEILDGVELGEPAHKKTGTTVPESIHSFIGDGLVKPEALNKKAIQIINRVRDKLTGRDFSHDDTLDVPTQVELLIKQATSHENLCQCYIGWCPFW
Chain of PI3Kβ (P42338 whole entry): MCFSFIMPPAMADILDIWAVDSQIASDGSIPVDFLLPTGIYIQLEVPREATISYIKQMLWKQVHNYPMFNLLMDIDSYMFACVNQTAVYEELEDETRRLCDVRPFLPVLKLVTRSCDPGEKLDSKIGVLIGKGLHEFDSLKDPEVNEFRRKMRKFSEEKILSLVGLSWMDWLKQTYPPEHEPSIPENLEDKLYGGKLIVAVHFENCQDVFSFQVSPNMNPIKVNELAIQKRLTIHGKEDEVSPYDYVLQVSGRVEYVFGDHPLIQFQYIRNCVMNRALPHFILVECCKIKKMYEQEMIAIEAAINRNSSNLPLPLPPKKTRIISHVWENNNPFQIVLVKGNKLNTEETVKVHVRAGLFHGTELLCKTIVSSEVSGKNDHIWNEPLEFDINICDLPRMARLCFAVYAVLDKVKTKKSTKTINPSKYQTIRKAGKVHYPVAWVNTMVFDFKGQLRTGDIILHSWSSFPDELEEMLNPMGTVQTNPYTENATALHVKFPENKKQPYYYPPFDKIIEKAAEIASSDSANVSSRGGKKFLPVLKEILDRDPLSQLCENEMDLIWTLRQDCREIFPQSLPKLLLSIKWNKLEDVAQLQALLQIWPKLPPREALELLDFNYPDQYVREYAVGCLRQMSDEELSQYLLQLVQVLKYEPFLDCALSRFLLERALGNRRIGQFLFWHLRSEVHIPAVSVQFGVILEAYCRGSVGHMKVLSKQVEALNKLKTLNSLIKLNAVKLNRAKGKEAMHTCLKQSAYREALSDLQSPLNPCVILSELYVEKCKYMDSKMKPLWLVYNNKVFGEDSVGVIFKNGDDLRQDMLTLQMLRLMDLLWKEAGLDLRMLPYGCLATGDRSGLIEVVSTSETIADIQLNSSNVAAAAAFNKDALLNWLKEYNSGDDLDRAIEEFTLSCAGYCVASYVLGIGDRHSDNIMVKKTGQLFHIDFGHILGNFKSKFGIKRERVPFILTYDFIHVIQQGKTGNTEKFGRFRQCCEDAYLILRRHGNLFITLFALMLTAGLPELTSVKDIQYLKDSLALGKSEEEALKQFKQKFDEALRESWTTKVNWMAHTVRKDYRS
Chain of PI3Kβ (P27986 whole entry partner): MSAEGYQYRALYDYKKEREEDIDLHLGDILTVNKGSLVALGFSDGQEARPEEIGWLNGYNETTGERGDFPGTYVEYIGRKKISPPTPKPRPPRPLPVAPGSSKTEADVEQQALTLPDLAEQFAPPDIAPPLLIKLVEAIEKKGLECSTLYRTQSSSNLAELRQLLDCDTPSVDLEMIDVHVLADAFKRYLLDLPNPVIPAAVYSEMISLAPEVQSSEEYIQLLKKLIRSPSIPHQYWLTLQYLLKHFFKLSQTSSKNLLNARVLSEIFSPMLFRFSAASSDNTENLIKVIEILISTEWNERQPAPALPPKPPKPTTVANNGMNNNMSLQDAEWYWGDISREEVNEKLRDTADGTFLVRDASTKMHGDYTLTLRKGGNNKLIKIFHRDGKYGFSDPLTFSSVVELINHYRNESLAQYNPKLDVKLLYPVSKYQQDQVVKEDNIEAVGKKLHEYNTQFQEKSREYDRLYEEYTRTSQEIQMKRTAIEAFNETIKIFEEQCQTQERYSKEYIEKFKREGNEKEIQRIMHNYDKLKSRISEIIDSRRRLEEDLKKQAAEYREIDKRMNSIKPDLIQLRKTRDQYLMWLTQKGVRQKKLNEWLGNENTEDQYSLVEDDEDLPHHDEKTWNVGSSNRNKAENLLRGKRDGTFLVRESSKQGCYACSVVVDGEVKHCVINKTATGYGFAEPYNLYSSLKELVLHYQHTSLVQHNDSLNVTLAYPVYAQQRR

`COc1ncc(-c2ccc3ncc(OCCN(C)C)c(=O)n3c2)cc1NS(=O)(=O)c1ccc(F)cc1Cl` [Compound 1] was tested, and the “increase in tumor volume” value ([1]; from day 15 to day 30 of the administration, ST-02-0013) was “almost no increase in tumor volume”, the “anti-tumor activity compared to the positive control drug BKM120” value ([1]; gastric cancer ST-02-0013) was “more excellent anti-tumor activity” and the IC50 (mTOR) was greater than 200 nM. The IC50 (PI3Kβ) was 9.9 ± 2.7 nM.
